# Target: His-tagged KRAS G12D protein (Homo sapiens, UniProt P01116, G12D)
# Experiment: biochemical
# Chain of His-tagged KRAS G12D protein (P01116 1-188 isoform P01116-2 G12D): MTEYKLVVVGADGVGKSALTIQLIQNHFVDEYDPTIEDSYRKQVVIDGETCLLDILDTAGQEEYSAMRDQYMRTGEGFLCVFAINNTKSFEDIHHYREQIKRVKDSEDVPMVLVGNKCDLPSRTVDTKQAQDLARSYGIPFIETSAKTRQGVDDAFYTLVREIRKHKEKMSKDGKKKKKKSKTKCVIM
row,Compound,IC50
1,"CCc1c(F)ccc2cc(O)cc(-c3ncc4c(N5CCCC(c6cnco6)C5)nc(OC[C@@]56CCCN5C[C@H](F)C6)nc4c3F)c12 (stereo partly drawn) [Example 108, 5-Ethyl-6-fluoro-4-(8-fluoro-2-(((2R,7aS)-2-fluorotetrahydro-1H-pyrrolizin-7a(5H)-yl)methoxy)-4-(3-(oxazol-5-yl)piperidin-1-yl)pyrido[4,3-d]pyrimidin-7-yl)naphthalen-2-ol]",0.011 µM
2,"CCc1c(F)ccc2cc(O)cc(-c3ncc4c(N5CCCC(C)(OC)C5)nc(OC[C@@]56CCCN5C[C@H](F)C6)nc4c3F)c12 (stereo partly drawn) [Example 148, 5-Ethyl-6-fluoro-4-(8-fluoro-2-(((2R,7aS)-2-fluorotetrahydro-1H-pyrrolizin-7a(5H)-yl)methoxy)-4-(3-methoxy-3-methylpiperidin-1-yl)pyrido[4,3-d]pyrimidin-7-yl)naphthalen-2-ol]",0.038 µM
3,"CCc1c(F)ccc2cc(O)cc(-c3ncc4c(N5C6CCC5C(C)(O)CC6)nc(OC[C@@]56CCCN5C[C@H](F)C6)nc4c3F)c12 (stereo partly drawn) [Example 70, 8-(7-(8-Ethyl-7-fluoro-3-hydroxynaphthalen-1-yl)-8-fluoro-2-(((2R,7aS)-2-fluorotetrahydro-1H-pyrrolizin-7a(5H)-yl)methoxy)pyrido[4,3-d]pyrimidin-4-yl)-2-methyl-8-azabicyclo[3.2.1]octan-2-ol]",0.032 µM
4,"CCc1c(F)ccc2cc(O)cc(-c3ncc4c(N5CC6CNC(=O)C6C5)nc(OC[C@@]56CCCN5C[C@H](F)C6)nc4c3F)c12 (relative stereo) [Example 61, rel-(3aR,6aS)-5-(7-(8-Ethyl-7-fluoro-3-hydroxynaphthalen-1-yl)-8-fluoro-2-(((2R,7aS)-2-fluorotetrahydro-1H-pyrrolizin-7a(5H)-yl)methoxy)pyrido[4,3-d]pyrimidin-4-yl)hexahydropyrrolo[3,4-c]pyrrol-1(2H)-one]",0.005 µM
5,"C=C1CCCN(c2nc(OC[C@@]34CCCN3C[C@H](F)C4)nc3c(F)c(-c4cc(O)cc5ccc(F)c(CC)c45)ncc23)CC1 [Example 144, 5-Ethyl-6-fluoro-4-(8-fluoro-2-(((2R,7aS)-2-fluorotetrahydro-1H-pyrrolizin-7a(5H)-yl)methoxy)-4-(4-methyleneazepan-1-yl)pyrido[4,3-d]pyrimidin-7-yl)naphthalen-2-ol]",0.006 µM
6,"CCc1cccc2cc(O)cc(-c3ncc4c(N5C6CCC5C(C)(O)CC6)nc(OC[C@@]56CCCN5C[C@H](F)C6)nc4c3F)c12 (stereo partly drawn) [Example 69, 8-(7-(8-Ethyl-3-hydroxynaphthalen-1-yl)-8-fluoro-2-(((2R,7aS)-2-fluorotetrahydro-1H-pyrrolizin-7a(5H)-yl)methoxy)pyrido[4,3-d]pyrimidin-4-yl)-2-methyl-8-azabicyclo[3.2.1]octan-2-ol]",0.036 µM
7,"CCC1CCCc2cc(O)cc(-c3ncc4c(N5CCC[C@@](C)(O)C5)nc(OC[C@@]56CCCN5C[C@H](F)C6)nc4c3F)c21 (single isomer, unassigned) [Example 174]",0.335 µM

# Continued, values first:
row,IC50,Compound
1,0.019 µM,"CCc1c(F)ccc2cc(O)cc(-c3ncc4c(N5CCC5C(N)=O)nc(OC[C@@]56CCCN5C[C@H](F)C6)nc4c3F)c12 (stereo partly drawn) [Example 5, 1-(7-(8-Ethyl-7-fluoro-3-hydroxynaphthalen-1-yl)-8-fluoro-2-(((2R,7aS)-2-fluorotetrahydro-1H-pyrrolizin-7a(5H)-yl)methoxy)pyrido[4,3-d]pyrimidin-4-yl)azetidine-2-carboxamide]"
2,0.054 µM,"CCc1c(F)ccc2cc(O)cc(-c3ncc4c(N5C6CCC(O)C5CC6)nc(OC[C@@]56CCCN5C[C@H](F)C6)nc4c3F)c12 (stereo partly drawn) [Example 34, 8-(7-(8-Ethyl-7-fluoro-3-hydroxynaphthalen-1-yl)-8-fluoro-2-(((2R,7aS)-2-fluorotetrahydro-1H-pyrrolizin-7a(5H)-yl)methoxy)pyrido[4,3-d]pyrimidin-4-yl)-8-azabicyclo[3.2.1]octan-2-ol 2,2,2-trifluoroacetate]"
3,0.033 µM,"CCc1c(F)ccc2cc(O)cc(-c3ncc4c(N5CC6CC5CCC6O)nc(OCC56CCCN5C[C@H](F)C6)nc4c3F)c12 (stereo in doubt) [Example 155, 6-(7-(8-Ethyl-7-fluoro-3-hydroxy-naphthalen-1-yl)-8-fluoro-2-(((2R,7aS)-2-fluorotetrahydro-1H-pyrrolizin-7a(5H)-yl)methoxy)pyrido[4,3-d]pyrimidin-4-yl)-6-azabicyclo[3.2.1] octan-2-ol]"
4,0.006 µM,"CCc1c(F)ccc2cc(O)cc(-c3ncc4c(N5CC6CCC(C(N)=O)(C6)C5)nc(OC[C@@]56CCCN5C[C@H](F)C6)nc4c3F)c12 (relative stereo) [Example 121, 3-(7-(8-Ethyl-7-fluoro-3-hydroxynaphthalen-1-yl)-8-fluoro-2-(((2R,7aS)-2-fluorotetrahydro-1H-pyrrolizin-7a(5H)-yl)methoxy)pyrido[4,3-d]pyrimidin-4-yl)-3-azabicyclo[3.2.1]octane-1-carboxamide]"
5,0.039 µM,"CCc1c(F)ccc2cc(O)cc(-c3ncc4c(N5C[C@@H]6COC[C@@H]65)nc(OC[C@@]56CCCN5C[C@H](F)C6)nc4c3F)c12 [Example 20, 4-(4-((1S,5R)-3-Oxa-6-azabicyclo[3.2.0]heptan-6-yl)-8-fluoro-2-(((2R,7aS)-2-fluorotetrahydro-1H-pyrrolizin-7a(5H)-yl)methoxy)pyrido[4,3-d]pyrimidin-7-yl)-5-ethyl-6-fluoronaphthalen-2-ol]"
6,0.012 µM,"CCc1c(F)ccc2cc(O)cc(-c3ncc4c(N5CC=CC(O)C5)nc(OC[C@@]56CCCN5C[C@H](F)C6)nc4c3F)c12 (stereo partly drawn) [Example 109, 1-(7-(8-Ethyl-7-fluoro-3-hydroxynaphthalen-1-yl)-8-fluoro-2-(((2R,7aS)-2-fluorotetrahydro-1H-pyrrolizin-7a(5H)-yl)methoxy)pyrido[4,3-d]pyrimidin-4-yl)-1,2,3,6-tetrahydropyridin-3-ol]"
7,0.004 µM,"CCc1c(F)ccc2cc(O)cc(-c3ncc4c(N5CC(C(N)=O)CC(C)(C)C5)nc(OC[C@@]56CCCN5C[C@H](F)C6)nc4c3F)c12 (stereo partly drawn) [Example 43, 1-(7-(8-Ethyl-7-fluoro-3-hydroxynaphthalen-1-yl)-8-fluoro-2-(((2R,7aS)-2-fluorotetrahydro-1H-pyrrolizin-7a(5H)-yl)methoxy)pyrido[4,3-d]pyrimidin-4-yl)-5,5-dimethylpiperidine-3-carboxamide]"
8,0.047 µM,"CCc1c(F)ccc2cc(O)cc(-c3ncc4c(N5C6CCC(C(N)=O)C5CC6)nc(OC[C@@]56CCCN5C[C@H](F)C6)nc4c3F)c12 (relative stereo) [Example 123, rac-(15,5S)-8-(7-(8-Ethyl-7-fluoro-3-hydroxynaphthalen-1-yl)-8-fluoro-2-(((2R,7aS)-2-fluorotetrahydro-1H-pyrrolizin-7a(5H)-yl)methoxy)pyrido[4,3-d]pyrimidin-4-yl)-8-azabicyclo[3.2.1]octane-2-carboxamide]"
9,0.039 µM,"CCc1c(F)ccc2cc(O)cc(-c3ncc4c(N5CCC[C@H]6NC(=O)C[C@H]65)nc(OC[C@@]56CCCN5C[C@H](F)C6)nc4c3F)c12 (relative stereo) [Example 63, rel-(3aR,7aR)-4-(7-(8-Ethyl-7-fluoro-3-hydroxynaphthalen-1-yl)-8-fluoro-2-(((2R,7aS)-2-fluorotetrahydro-1H-pyrrolizin-7a(5H)-yl)methoxy)pyrido[4,3-d]pyrimidin-4-yl)octahydro-2H-pyrrolo[3,2-b]pyridin-2-one]"

# From patent US20250034167A1, “HETEROCYCLIC COMPOUNDS AND METHODS OF USE” (AMGEN INC., priority 2021, published 2025)
